# Results reported in US8501450B2, “Hepatitis C virus variants” (priority 2005, dated 2013).
# “And” between values parts separate entries of the source, which are not always exact repeats. Identical values can stand only once.
# Legend:
# [1] = biological target: HCV NS3 protease A156T mutant (UniProt P27958, A1182T, species not given); conditions: enzyme IC50 vs genotype 1a HCV-H reference strain
# [2] = biological target: HCV NS3 protease T54A mutant (UniProt P27958, T1080A, species not given); conditions: enzyme IC50 vs genotype 1a HCV-H reference strain
# [3] = tested on: wild-type HCV replicon Con1-mADE cells; conditions: for Fold change of replicon IC50: wild-type replicon relative to itself
# Source text: (§1) The stable wild-type (mADE) and variant HCV sub-genomic replicon cell lines were generated using the T7 RNA runoff transcripts from the corresponding high efficiency Con1 replicon plasmids.
# (§2) The stable wild-type and variant HCV sub-genomic replicon cell lines were generated using the 17 RNA runoff transcripts from the corresponding high efficiency Con1 replicon plasmids.
# [4] = tested on: HCV replicon cells, NS3 R155T variant; conditions: for Fold change of replicon IC50: R155T IC50 divided by wild-type replicon IC50
# Source text: as §1, §2
# [5] = tested on: wild-type HCV replicon Con1-mADE cells; experiment: microbe, parasite or virus in culture; conditions: Hepatitis C virus, 48 h, read-out: Replicon IC50
# Source text: as §1, §2
# [6] = tested on: HCV variant mixture in patient plasma; experiment: Average phenotype for each patient; assay type: in vivo, patients; conditions: for Average Phenotype: individual subjects
# Source text: The genotypic analyses performed here allowed a detailed examination of the relative proportion of different resistant mutants within each patient. To better understand the level of phenotypic resistance conferred by these viral mixtures, exploratory analyses were done to obtain an average phenotype for each patient. The percent of virions with a given single or double mutation was multiplied by the average fold change in enzyme IC50 for that given mutant (Table 3), and then all values were added for each patient. […] An analysis correlating pharmacokinetic data with resistance patterns is currently underway.
# [7] = tested on: HCV replicon cells, NS3 R155K variant
# Source text: as §1, §2
# [8] = tested on: HCV replicon cells, NS3 R155M variant
# Source text: as §1, §2
# [9] = patients that continued to decline, follow-up
# [10] = plateau group of patients, Day 14
# [11] = rebound group of patients, Day 14
# [12] = rebound group of patients, follow-up
molecule,measurement,setting,value
COc1ccc2c(O[C@@H]3C[C@H]4C(=O)N[C@]5(C(=O)O)C[C@H]5/C=C\CCCCC[C@H](NC(=O)OC5CCCC5)C(=O)N4C3)cc(-c3csc(NC(C)C)n3)nc2c1 [BILN 2061],Fold change,[1],>183 fold
same,Fold change,[2],2.3 fold
"NC(=O)c1ncn([C@@H]2O[C@H](CO)[C@@H](O)[C@H]2O)n1 [Ribavirin, 1-beta-D-ribofuranosyl-1H-1,2,4-triazole-3-carboxamide]",Fold change of replicon IC50,[3],1.0 ± 0.3 fold
same,Fold change of replicon IC50,[4],0.6 ± 0.3 fold
same,IC50,[5],58 ± 18 µM
CCC[C@H](NC(=O)[C@@H]1[C@H]2CCC[C@H]2CN1C(=O)[C@@H](NC(=O)[C@@H](NC(=O)c1cnccn1)C1CCCCC1)C(C)(C)C)C(=O)C(=O)NC1CC1 [VX-950],IC50,[5],0.485 ± 0.108 µM
same,Average Phenotype,"[6]; 450 mg, FU (7-10 days after ETR)",28.94 and 3.13 and 8.65 and 1.14 and 0.83 and 29.43 and 14.81
same,Average Phenotype,"[6]; 750 mg, ETR (Day 14)",466.14 and 466.00
same,Average Phenotype,"[6]; 750 mg, FU (7-10 days after ETR)",9.33 and 45.74 and 126.48 and 9.65 and 3.17 and 4.92 and 0.00
same,Average Phenotype,"[6]; 1250 mg, ETR (Day 14)",10.15 and 26.13 and 9.38 and 14.39 and 14.59 and 47.49 and 147.96 and 25.96 and 466.00
same,Average Phenotype,"[6]; 1250 mg, FU (7-10 days after ETR)",9.39 and 26.03 and 10.65 and 12.33 and 15.28 and 15.38 and 7.93 and 1.87 and 30.97
same,"Average phenotype, mean value",[6]; [9],4
same,"Average phenotype, range",[6]; [9],0-10
same,"Average phenotype, mean value",[6]; [10],272
same,"Average phenotype, range",[6]; [10],26-466
same,"Average phenotype, mean value","[6]; plateau group of patients, follow-up",32
same,"Average phenotype, mean value",[6]; [11],27
same,"Average phenotype, range",[6]; [11],6-70
same,"Average phenotype, mean value",[6]; [12],15
same,"Average phenotype, range",[6]; [12],3-29
IFN-α,Fold change of replicon IC50,[3],1.0 ± 0.1 fold
same,Replicon IC50,"[3]; wild-type replicon, 48-h assay, mean ± SD of three experiments",11.6 ± 1.1 U/ml
same,Fold change of replicon IC50,[4],0.4 ± 0.3 fold
same,Replicon IC50,"[4]; R155T replicon, 48-h assay, mean ± SD of three experiments",4.8 ± 3.3 U/ml
same,Fold change of replicon IC50,[7]; R155K IC50 divided by wild-type replicon IC50,1.3 ± 1.1 fold
same,Replicon IC50,"[7]; R155K replicon, 48-h assay, mean ± SD of three experiments",15.2 ± 12.3 U/ml
same,Fold change of replicon IC50,[8]; R155M IC50 divided by wild-type replicon IC50,0.4 ± 0.1 fold
same,Replicon IC50,"[8]; R155M replicon, 48-h assay, mean ± SD of three experiments",4.9 ± 1.0 U/ml
